From patent US20070048812A1, “Cell-based luminogenic and nonluminogenic proteasome assays” (priority 2005, published 2007)

How the values were obtained:
[1] = tested on: proteasome activities in Jurkat cells; test: Cell-based luminescent proteasome assay in Jurkat cells; details: 1.5 hours inhibitor exposure
Experimental: FIG. 3. Luminescence versus proteasome inhibitor concentration in Jurkat cells. Jurkatt cells were exposed to inhibitor (AdaAhxL3VS) for 1.5 hours and then contacted with LLVY-aminoluciferin (final concentration of 10 μM; SEQ ID NO:1).
NCI-H226 cells (ATCC #CRL-5826) were maintained as an attached line using RPMI 1640 (Sigma #R-8005) with 10% fetal bovine serum (Hyclone # SH30070) and passaged as needed. Jurkat, HL-60 and U937 suspension cell lines were likewise maintained and passaged. To prepare cells for a cell-based proteasome assay, adherent cells were harvested from the parent flask by removing medium, rinsing the flask with D-PBS and incubated with trypsin-EDTA (Sigma T-4040) for 3 to 4 minutes at 37° C. The trypsin reaction was stopped by adding complete medium containing serum, and cells were then centrifuged 4 minutes at 200×G. The cell pellet was suspended in fresh medium, cells counted by trypan blue exclusion and adjusted to 1.11×10^5 cells/ml. […]
For instance, one vial of V859A (Luciferin Detection Reagent) is suspended with 10 ml of buffer to which 50 to 100 μl of substrate is added, and 100 μl of cells are combined with 100 μl of substrate containing reagent. […] This pre-incubation depletes the free aminoluciferin present in the substrate, thereby reducing potential background luminescence. […]

U266 cells = test: Toxicity of proteasome inhibitor incubation to cells; assay type: cell-based
calpain I = target: T1, calpain I (Homo sapiens, UniProt P07384); test: Lactacystin activity on purified calpain, LLVY-aminoluciferin luminescence; assay type: biochemical; details: 0.5 hour preincubation, calcium present (FIG. 2A)
T1 sequence (P07384 1-714): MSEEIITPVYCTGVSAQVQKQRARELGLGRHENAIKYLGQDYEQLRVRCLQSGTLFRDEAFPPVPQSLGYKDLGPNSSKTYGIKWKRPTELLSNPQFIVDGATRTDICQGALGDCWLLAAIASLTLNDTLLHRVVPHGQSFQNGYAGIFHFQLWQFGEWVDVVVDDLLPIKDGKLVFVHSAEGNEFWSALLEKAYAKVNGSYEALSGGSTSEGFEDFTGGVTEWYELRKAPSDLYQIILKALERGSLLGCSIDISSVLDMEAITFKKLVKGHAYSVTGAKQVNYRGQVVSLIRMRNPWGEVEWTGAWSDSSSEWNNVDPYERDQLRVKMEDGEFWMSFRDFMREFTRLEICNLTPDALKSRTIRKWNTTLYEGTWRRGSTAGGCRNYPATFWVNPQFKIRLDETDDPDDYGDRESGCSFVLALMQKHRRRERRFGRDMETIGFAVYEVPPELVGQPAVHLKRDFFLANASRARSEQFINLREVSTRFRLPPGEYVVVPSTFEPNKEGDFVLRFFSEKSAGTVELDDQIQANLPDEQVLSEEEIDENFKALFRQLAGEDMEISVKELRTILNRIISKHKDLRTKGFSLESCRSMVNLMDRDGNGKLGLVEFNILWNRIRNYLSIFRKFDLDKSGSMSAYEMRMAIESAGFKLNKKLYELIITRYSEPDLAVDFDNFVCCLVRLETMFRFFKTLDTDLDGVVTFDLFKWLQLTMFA
T1 sequence (P04632 1-268 partner): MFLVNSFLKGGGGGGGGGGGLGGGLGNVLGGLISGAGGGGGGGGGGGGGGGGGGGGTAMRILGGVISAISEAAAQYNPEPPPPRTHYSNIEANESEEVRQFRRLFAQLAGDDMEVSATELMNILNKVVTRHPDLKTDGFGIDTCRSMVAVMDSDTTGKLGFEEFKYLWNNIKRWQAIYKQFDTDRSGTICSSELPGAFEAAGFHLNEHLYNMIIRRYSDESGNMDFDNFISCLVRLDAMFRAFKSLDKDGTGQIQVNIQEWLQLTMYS
Experimental: (§1) After a 0.5 hour preincubation in 25 mM HEPES/0.5 mM EDTA/1 mM DTT, a 2×reagent was added (20 μM LLVY-aminoluciferin (SEQ ID NO:1)/3 mM CaCL2/10 mM MgSO4).

proteasomes = proteasomes (Homo sapiens, UniProt P28074); test: Lactacystin activity on proteasomes, LLVY-aminoluciferin luminescence with DTT; assay type: biochemical; details: at 20 μM, with DTT included (FIG. 2A)
Experimental: as §1

HL-60 cells = test: ATP content (viability), CellTiter-Glo; assay type: cell-based; details: 1.5 hours treatment, concentrations tested
Description: (§2) Cell viability measurements were made using CellTiter Glo (Promega Corp.) in a parallel series of samples to confirm that viability was not affected by lactacystin treatment.

U937 cells = test: ATP content (viability), CellTiter-Glo; assay type: cell-based; details: 1.5 hours treatment, concentrations tested
Description: as §2

Row | SMILES | chymotrypsin-like, trypsin-like and caspase-like proteasome activities [1] | toxicity to the cells, short incubations (U266 cells; incubation for 1 to 2 hours) | toxicity to the cells, longer incubation times (U266 cells; longer incubation times) | effect on calpain I (calpain I) | inhibition of the proteasome (proteasomes) | cell viability (ATP assay, CellTiterGlo) (HL-60 cells) | cell viability (ATP assay, CellTiterGlo) (U937 cells)
1 | CC(C)CC(C=CS(C)(=O)=O)NC(=O)[C@H](CC(C)C)NC(=O)[C@H](CC(C)C)NC(=O)CCCCCNC(=O)CCCCCNC(=O)CCCCCNC(=O)CC12CC3CC(CC(C3)C1)C2 (stereo partly shown) [AdaAhx3L3VS, adamantane-acetyl-(6-aminohexanoyl)3-(leucinyl)3-vinyl-(methyl)-sulfone] | blocked all three activities | not toxic | induced apoptosis |  |  |  | 
2 | CC(=O)N[C@@H](CSC(=O)[C@]1([C@@H](O)C(C)C)NC(=O)[C@H](C)[C@@H]1O)C(=O)O [lactacystin] |  |  |  | minimal effect | incomplete inhibition | did not kill the cells | did not kill the cells
